Publication PMC12935787, “Clinical pharmacokinetics and pharmacometabolomics of Andrographis paniculata capsules: Bridging drug disposition and metabolic response to precision medicine” (Naunyn-Schmiedeberg's Archives of Pharmacology, 2025)
Where two headings read alike, the source gives them in different places.

Columns and labels:
[1] = Clinical pharmacokinetics, plasma LC-MS/MS after single oral dose of AP capsules; format: in vivo, human (healthy volunteers); conditions: for concentration at 6 h / concentration at 8 h / concentration at 10 h / concentration at 12 h / concentration at 24 h / concentration at 0 h / concentration at 0.5 h / concentration at 1 h / concentration at 1.5 h / concentration at 2 h / concentration at 2.5 h / concentration at 3 h / concentration at 3.5 h / concentration at 4 h / concentration at 5 h: oral, 2000 mg; for concentration at 6 h / concentration at 8 h / concentration at 10 h / concentration at 12 h / concentration at 24 h / concentration at 0 h / concentration at 0.5 h / concentration at 1 h / concentration at 1.5 h / concentration at 2 h / concentration at 2.5 h / concentration at 3 h / concentration at 3.5 h / concentration at 4 h / concentration at 5 h / Mean concentration: 2000 mg AP capsules
Procedure: The protocol was published (Tee et al. [2022]).
Seven calibrators ranging from 1, 2, 5,10, 20, 50, and 100 ng mL^−1 were prepared. Frozen plasma was thawed, vortexed-mixes, and processed via protein precipitation: 50 µL plasma plus 100 µL 0.01% ammonia in methanol were vortexed (20 s), centrifuged (14800 rpm, 5 min) and […] supernatant was transferred to 2 mL vials with inserts. LC–MS/MS injection volume: 10 µL. The separation used a Phenomenex Gemini-NX C18 column (150 × 2.1 mm, 5 μm) with 0.01% ammonia (A) and acetonitrile/methanol (1:1, B) as mobile phases (0.30 mL min^-1). The gradient program: 40% B (0 min), linear increase to 95% B (3 min), hold to 5 min, sharp decrease to 10% B (5.01 min), hold to 7 min, return to 40% B (7.01 min), and re-equilibration to 10 min. Mass detection employed an LCMS-8060NX triple quadrupole with heated ESI in negative mode, monitoring specific MRM transitions: andrographolide (349.3 → 331.2/287.1), 14-deoxyandrographolide (331.2 → 108.0/301.1), and neoandrographolide (479.1 → 317.4/161.1).
Pharmacokinetic parameters were determined from plasma samples (5 subjects, 15 time points) analyzed via LC–MS/MS (Shimadzu 8060NX). […] Specific MRM transitions for andrographolide, 14-deoxyandrographolide, and neoandrographolide in plasma samples of subjects are illustrated in Figure S3. […] The dose-dependent concentration–time curves, pharmacokinetics profiles (Fig. 2a, b and c) and comprehensive individual PK data (Table S4) provide a foundation for developing personalized AP dosing regimens, supporting its precision medicine potential.

[2] = set-up: method as in Panossian et al. [2000]; conditions: single dose of AP equivalent to 20 mg andrographolide; ref Panossian et al. [2000]; cited from earlier work
[3] = human, plasma, 2000 mg AP capsules oral, fasting, n=5

Compound `C=C1CC[C@@H]2[C@](C)(CO)[C@H](O)CC[C@@]2(C)[C@@H]1C/C=C1/C(=O)OC[C@H]1O` [andrographolide] has a concentration at 6 h ([1]; human, plasma, S4, 6.00 h, read-out: Plasma concentration) of 0 ng/mL, a concentration at 8 h ([1]; human, plasma, S4, 8.00 h, read-out: Plasma concentration) of 0 ng/mL and a concentration at 10 h ([1]; human, plasma, S4, 10.00 h, read-out: Plasma concentration) of 0 ng/mL. It also gave a concentration at 12 h ([1]; human, plasma, S4, 12.00 h, read-out: Plasma concentration) of 0 ng/mL, a concentration at 24 h ([1]; human, plasma, S4, 24.00 h, read-out: Plasma concentration) of 0 ng/mL and a concentration at 0 h ([1]; human, plasma, S5, 0.00 h, read-out: Plasma concentration) of 0 ng/mL. It also gave a concentration at 0.5 h ([1]; human, plasma, S5, 0.50 h, read-out: Plasma concentration) of 0 ng/mL, a concentration at 1 h ([1]; human, plasma, S5, 1.00 h, read-out: Plasma concentration) of 0 ng/mL and a concentration at 1.5 h ([1]; human, plasma, S5, 1.50 h, read-out: Plasma concentration) of 2.52 ng/mL. For the same compound, the concentration at 2 h ([1]; human, plasma, S5, 2.00 h, read-out: Plasma concentration) was 3.77 ng/mL, the concentration at 2.5 h ([1]; human, plasma, S5, 2.50 h, read-out: Plasma concentration) was 3.17 ng/mL and the concentration at 3 h ([1]; human, plasma, S5, 3.00 h, read-out: Plasma concentration) was 2.38 ng/mL. It also gave a concentration at 3.5 h ([1]; human, plasma, S5, 3.50 h, read-out: Plasma concentration) of 1.59 ng/mL, a concentration at 4 h ([1]; human, plasma, S5, 4.00 h, read-out: Plasma concentration) of 0.54 ng/mL and a concentration at 5 h ([1]; human, plasma, S5, 5.00 h, read-out: Plasma concentration) of 1.62 ng/mL. The concentration at 6 h ([1]; human, plasma, S5, 6.00 h, read-out: Plasma concentration) was 1.12 ng/mL, the concentration at 8 h ([1]; human, plasma, S5, 8.00 h, read-out: Plasma concentration) was 0 ng/mL and the concentration at 10 h ([1]; human, plasma, S5, 10.00 h, read-out: Plasma concentration) was 0 ng/mL. For the same compound, the concentration at 12 h ([1]; human, plasma, S5, 12.00 h, read-out: Plasma concentration) was 0 ng/mL, the concentration at 24 h ([1]; human, plasma, S5, 24.00 h, read-out: Plasma concentration) was 0 ng/mL and the concentration at 0 h ([1]; human, plasma, mean n=5, 0.00 h, read-out: Mean concentration) was 0 ng/mL. The concentration at 0.5 h ([1]; human, plasma, mean n=5, 0.50 h, read-out: Mean concentration) was 8.62 ng/mL, the concentration at 1 h ([1]; human, plasma, mean n=5, 1.00 h, read-out: Mean concentration) was 7.7 ng/mL and the concentration at 1.5 h ([1]; human, plasma, mean n=5, 1.50 h, read-out: Mean concentration) was 10.2 ng/mL. It also gave a concentration at 2 h ([1]; human, plasma, mean n=5, 2.00 h, read-out: Mean concentration) of 6.21 ng/mL, a concentration at 2.5 h ([1]; human, plasma, mean n=5, 2.50 h, read-out: Mean concentration) of 3.4 ng/mL and a concentration at 3 h ([1]; human, plasma, mean n=5, 3.00 h, read-out: Mean concentration) of 3.02 ng/mL. The concentration at 3.5 h ([1]; human, plasma, mean n=5, 3.50 h, read-out: Mean concentration) was 1.3 ng/mL, the concentration at 4 h ([1]; human, plasma, mean n=5, 4.00 h, read-out: Mean concentration) was 0.11 ng/mL and the concentration at 5 h ([1]; human, plasma, mean n=5, 5.00 h, read-out: Mean concentration) was 0.32 ng/mL. For the same compound, the concentration at 6 h ([1]; human, plasma, mean n=5, 6.00 h, read-out: Mean concentration) was 0.22 ng/mL, the concentration at 8 h ([1]; human, plasma, mean n=5, 8.00 h, read-out: Mean concentration) was 0 ng/mL and the concentration at 10 h ([1]; human, plasma, mean n=5, 10.00 h, read-out: Mean concentration) was 0 ng/mL. The concentration at 12 h ([1]; human, plasma, mean n=5, 12.00 h, read-out: Mean concentration) was 0 ng/mL, the concentration at 24 h ([1]; human, plasma, mean n=5, 24.00 h, read-out: Mean concentration) was 0 ng/mL and the AUC(0-inf) [1, 3] was 20.9 ng·h/mL. For the same compound, the AUC(0-t) [1, 3] was 20.7 ng·h/mL, the Cmax [1, 3] was 10.2 ng/mL and the Tmax [1, 3] was 1.5 h. For the same compound, the half-life [1, 3] was 0.72 h, the Mean concentration ([1]; mean n=5, 0.00 h) was 0 ng/mL and the Mean concentration ([1]; mean n=5, 0.50 h) was 8.622 ng/mL. For the same compound, the Mean concentration ([1]; mean n=5, 1.00 h) was 7.6996 ng/mL, the Mean concentration ([1]; mean n=5, 1.50 h) was 10.145 ng/mL and the Mean concentration ([1]; mean n=5, 2.00 h) was 6.2104 ng/mL. It also gave a Mean concentration ([1]; mean n=5, 2.50 h) of 3.3999 ng/mL, a Mean concentration ([1]; mean n=5, 3.00 h) of 3.0233 ng/mL and a Mean concentration ([1]; mean n=5, 3.50 h) of 1.2987 ng/mL. For the same compound, the Mean concentration ([1]; mean n=5, 4.00 h) was 0.1073 ng/mL, the Mean concentration ([1]; mean n=5, 5.00 h) was 0.3249 ng/mL and the Mean concentration ([1]; mean n=5, 6.00 h) was 0.2247 ng/mL. The Mean concentration ([1]; mean n=5, 8.00 h) was 0 ng/mL, the Mean concentration ([1]; mean n=5, 10.00 h) was 0 ng/mL and the Mean concentration ([1]; mean n=5, 12.00 h) was 0 ng/mL. The Mean concentration ([1]; mean n=5, 24.00 h) was 0 ng/mL and the “Tmax, previously reported” value [2] was 1.5 to 2 h.
